The results in this text go back to patent US20120101110A1, “Diaza-spiro[5.5]undecanes” (priority 2010, published 2012).

In test [1] the target is T1, human orexin 2 receptors (Homo sapiens, UniProt O43614).
T1 sequence (O43614 1-444): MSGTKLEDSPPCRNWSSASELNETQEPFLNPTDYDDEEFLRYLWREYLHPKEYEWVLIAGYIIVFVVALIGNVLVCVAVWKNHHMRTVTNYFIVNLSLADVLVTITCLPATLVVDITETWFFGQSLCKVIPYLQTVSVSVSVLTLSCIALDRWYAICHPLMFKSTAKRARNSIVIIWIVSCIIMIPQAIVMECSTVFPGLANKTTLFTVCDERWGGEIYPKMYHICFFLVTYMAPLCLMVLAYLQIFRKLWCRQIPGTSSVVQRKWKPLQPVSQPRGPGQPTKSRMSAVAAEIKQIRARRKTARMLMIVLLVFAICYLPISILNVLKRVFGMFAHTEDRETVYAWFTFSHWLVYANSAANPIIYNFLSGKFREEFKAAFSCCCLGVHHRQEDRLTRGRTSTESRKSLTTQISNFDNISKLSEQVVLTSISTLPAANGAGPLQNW
The test can be described thus: Calcium accumulation in cells (FLIPR), hOx2R. The conditions noted are these: cells expressing human orexin 2 receptor; inhibition of orexin A-induced calcium accumulation; Cheng and Prusoff correction. The class given is cell-based.
Experimental: (§3) Cells expressing human orexin 1 or human orexin 2 receptors, were seeded at 8,000 cells/well in 384 well black-walled clear bottom, poly-D-lysine coated plates. After 24 h, the medium was removed and cells were washed once with phosphate buffered saline and serum-deprived overnight in assay buffer (130 mM NaCl, 5.4 mM KCl, 1.8 mM CaCl2, 0.8 mM MgSO4, 0.9 mM NaH2PO4, 25 mM glucose, 20 mM HEPES, pH 7.4) containing bovine serum albumin (1% w/v).
On the day of the experiment, the cells seeded in black plates were treated with assay buffer containing the Ca^2+sensitive fluorescent dye Fluo-4-AM (2 μM), and probenecid (0.1 mM). After 1 h plates were washed twice with, and resuspended in, assay buffer containing probenecid (0.1 mM) using a multi plate washer. […] Fluorescence measurements were then continued every 1 S for 120 S followed by every 4 S for 240 S.
The measurements were typically made in two sequences:
(§4) Compounds of formula I were tested usually in a concentration range from 10^−9 M to 10^−5 M. In the second round, performed one hour later (to allow for equilibration), Orexin A was tested either in the absence (calibration curves, Orexin A agonist controls) or in the presence of compounds of formula I to determine antagonism.

Test [2] has as its target T2, human orexin 1 receptors (Homo sapiens, UniProt O43613).
T2 sequence (O43613 1-425): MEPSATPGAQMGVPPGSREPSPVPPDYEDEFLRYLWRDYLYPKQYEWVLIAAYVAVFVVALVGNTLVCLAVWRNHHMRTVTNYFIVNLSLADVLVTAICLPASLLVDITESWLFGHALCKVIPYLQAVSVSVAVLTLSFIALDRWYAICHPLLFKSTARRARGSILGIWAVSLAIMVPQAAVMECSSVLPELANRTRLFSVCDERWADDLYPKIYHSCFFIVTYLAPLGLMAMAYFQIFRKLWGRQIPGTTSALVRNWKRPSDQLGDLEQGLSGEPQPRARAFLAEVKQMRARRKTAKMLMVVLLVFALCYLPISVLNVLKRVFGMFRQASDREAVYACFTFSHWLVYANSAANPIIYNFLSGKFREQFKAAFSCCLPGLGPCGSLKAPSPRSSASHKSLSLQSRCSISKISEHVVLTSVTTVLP
The test can be described thus: Radioligand binding assay ([3H]-SB649868 competition), hOx1R. Conditions: competition with about 1 nM [3H]-SB649868; CHO or HEK cell membranes expressing human orexin 1 receptor. Here is the method: (§1) The cell pellet was either stored at −80° C. or used directly. Before the experiments, cell membranes were re-suspended in binding assay buffer (10 mM HEPES, 0.5% (w/v) bovine serum albumin, pH 7.5) by homogenisation with a Polytron homogeniser at 50 Hz for 20 s. Cell membranes were also used as made available by commercial providers.
(§2) Bound radioactivity was measured, and data were analysed with the program XLFIT or Graphpad Prism. Protein concentration was determined according to the Bradford/BioRad Protein Assay Kit.
In competition experiments, cell homogenates (150 μl) were incubated in assay buffer (10 mM HEPES, pH 7.5, 0.5% (w/v) bovine serum albumin, 5 mM MgCl2, 1 mMCaCl2, and tween 0.05%) for 1 h at room temperature with about 1 nM of the radioligand [^3H]-SB649868, 66 Ci/mmole, 50 μl), and with various concentrations of compounds of the invention (50 μl) in triplicates; non-specific binding was determined in the presence of almorexant (10 μM). Reactions were terminated by vacuum filtration, 3 washes of ice cold wash buffer (Tris-HCl pH 7.4/10 mM, with NaCl 154 mM). Competition data is expressed in Table 2 as Kd [μM].

For test [3], the target named is T1, human orexin 2 receptors. Put plainly: Radioligand binding assay ([3H]-SB649868 competition), hOx2R. The conditions noted are these: competition with about 1 nM [3H]-SB649868; CHO or HEK cell membranes expressing human orexin 2 receptor; read-out: binding hOx2R Kd. The method, then:
as §1, §2
In competition experiments, cell homogenates (150 μl) were incubated in assay buffer (10 mM HEPES, pH 7.5, 0.5% (w/v) bovine serum albumin, 5 mM MgCl2, 1 mMCaCl2, and tween 0.05%) for 1 h at room temperature with about 1 nM of the radioligand [^3H]-SB649868, 66 Ci/mmole, 50 μl), and with various concentrations of compounds of the invention (50 μl) in triplicates; non-specific binding was determined in the presence of almorexant (10 μM).

The target in test [4] is T2, human orexin 1 receptors. The test can be described thus: Calcium accumulation in cells (FLIPR), hOx1R. The conditions noted are these: for inhibition at 10 µM: read-out: FLIPR hOx1R % inhibition value.
Experimental: as §3
On the day of the experiment, the cells seeded in black plates were treated with assay buffer containing the Ca^2+sensitive fluorescent dye Fluo-4-AM (2 μM), and probenecid (0.1 mM). After 1 h plates were washed twice with, and resuspended in, assay buffer containing probenecid (0.1 mM) using a multi plate washer. The plates were placed into a FLIPR II (Fluorometric Imaging Plate Reader, Molecular Devices, Sunnyvale, Calif., USA) and baseline fluorescence (fluorescence light units, FLU) was measured (5 measurements, 2 S each; laser excitation 488 nm at 0.6-1 W, CCD camera exposure 0.4 s) before addition of buffer alone (basal) or containing test compounds (either compound of formula I alone, agonist alone or agonist in the presence of various concentrations of compounds of formula I). Fluorescence measurements were then continued every 1 S for 120 S followed by every 4 S for 240 S.
as §4
Inhibition data is expressed in Table 2 as Ki [μM], converted by the Cheng and Prusoff correction (Ki=IC50/1+(L/EC50)), where IC50 is the 50% inhibition value determined in concentration response inhibition curves, EC50 is the half maximal activation concentration determined for orexin A in concentration response curves and L is the concentration of orexin A used in inhibition experiments performed in with a submaximal concentration of orexin A in the presence of up to 8 increasing concentrations of compound of formula I. Inhibition data is also expressed in Table 2 as % inhibition value measured at a concentration of 10 μM of selected compounds of formula I.

For `COc1cccc(N2CCC3(CCCN(Cc4c[nH]c5ccccc45)C3=O)CC2)n1` [Example 65, 2-((1H-indol-3-yl)methyl)-9-(6-methoxypyridin-2-yl)-2,9-diazaspiro[5.5]undecan-1-one], the Ki was 0.066 µM on human orexin 2 receptors [1] and 0.699 µM at human orexin 1 receptors [4]. The Kd is above 10 µM at human orexin 1 receptors [2] and 0.588 µM at human orexin 2 receptors [3].
Turning to `Cc1ccnc(N2CCC3(CCCN(Cc4c[nH]c5ccccc45)C3=O)CC2)c1` [Example 67, 2-((1H-indol-3-yl)methyl)-9-(4-methylpyridin-2-yl)-2,9-diazaspiro[5.5]undecan-1-one], the Ki at human orexin 2 receptors [1] is 0.134 µM. Also, the Kd came to 3.59 µM at human orexin 1 receptors [2] and 0.315 µM at human orexin 2 receptors [3]. In addition, the inhibition at 10 µM on human orexin 1 receptors [4] was below 10%.
For the molecule `Cc1cc(C)nc(N2CCC3(CCCN(Cc4cccc(-c5ncccn5)c4)C3=O)CC2)c1` [Example 74, 9-(4,6-dimethylpyridin-2-yl)-2-(3-(pyrimidin-2-yl)benzyl)-2,9-diazaspiro[5.5]undecan-1-one], the results for the inhibition constant (Ki) at human orexin 2 receptors [1] and on human orexin 1 receptors [4] were 0.16 µM and 2.15 µM, respectively. The figures for the Kd at human orexin 1 receptors [2] and on human orexin 2 receptors [3] were above 10 µM and 0.338 µM, respectively.
For `Cc1cc(C#N)nc(N2CCC3(CCCN(Cc4c[nH]c5ccccc45)C3=O)CC2)n1` [Example 75, 2-(2-((1H-indol-3-yl)methyl)-1-oxo-2,9-diazaspiro[5.5]undecan-9-yl)-6-methylpyrimidine-4-carbonitrile] the same measures were 0.0072 µM, 1.48 µM, above 10 µM and 0.466 µM.
For `Cc1cc(C#N)cc(N2CCC3(CCCN(Cc4c[nH]c5ccccc45)C3=O)CC2)n1` [Example 78, 2-(2-((1H-indol-3-yl)methyl)-1-oxo-2,9-diazaspiro[5.5]undecan-9-yl)-6-methylisonicotinonitrile], in that order: 0.003 µM, 0.481 µM, 3.42 µM and 0.216 µM.
For `N#Cc1ccnc(N2CCC3(CCCN(Cc4c[nH]c5ccccc45)C3=O)CC2)n1` [Example 80, 2-(2-((1H-indol-3-yl)methyl)-1-oxo-2,9-diazaspiro[5.5]undecan-9-yl)pyrimidine-4-carbonitrile], the Ki on human orexin 2 receptors [1] was found to be 0.05 µM. Further, the Kd on human orexin 1 receptors [2] was 7.76 µM; at human orexin 2 receptors [3], 1.1 µM. For the same molecule, at human orexin 1 receptors [4], the inhibition at 10 µM was found to be 41%.
Regarding `Cc1cnc(N2CCC3(CCCN(Cc4c[nH]c5ccccc45)C3=O)CC2)nc1C` [Example 81, 2-((1H-indol-3-yl)methyl)-9-(4,5-dimethylpyrimidin-2-yl)-2,9-diazaspiro[5.5]undecan-1-one], the Ki at human orexin 2 receptors [1] was 0.045 µM; at human orexin 1 receptors [4], 2.03 µM. Moreover, the dissociation constant (Kd) on human orexin 1 receptors [2] came out at 0.798 µM; on human orexin 2 receptors [3], 0.029 µM.
For `N#Cc1cccc(N2CCC3(CCCN(Cc4c[nH]c5ccccc45)C3=O)CC2)n1` [Example 83, 6-(2-((1H-indol-3-yl)methyl)-1-oxo-2,9-diazaspiro[5.5]undecan-9-yl)picolinonitrile], in that order: 0.013 µM, 1.52 µM, above 10 µM and 2.11 µM.
For `COc1cc(OC)nc(N2CCC3(CCCN(Cc4c[nH]c5ccccc45)C3=O)CC2)n1` [Example 88, 2-((1H-indol-3-yl)methyl)-9-(4,6-dimethoxypyrimidin-2-yl)-2,9-diazaspiro[5.5]undecan-1-one] the same measures were 0.046 µM, 0.406 µM, 5.06 µM and 0.611 µM.
Consider `N#Cc1ccnc(N2CCC3(CCCC(=O)N3Cc3cccc4[nH]ccc34)CC2)c1` [Example 91, 2-(1-((1H-indol-4-yl)methyl)-2-oxo-1,9-diazaspiro[5.5]undecan-9-yl)isonicotinonitrile], for which the Ki on human orexin 2 receptors [1] is 0.017 µM. For the same molecule, the Kd is above 10 µM at human orexin 1 receptors [2] and 0.27 µM at human orexin 2 receptors [3]. In addition, at human orexin 1 receptors [4], the inhibition at 10 µM was found to be 26%.
On to `N#Cc1cccc(N2CCC3(CCCC(=O)N3Cc3cccc4[nH]ccc34)CC2)n1` [Example 92, 6-(1-((1H-indol-4-yl)methyl)-2-oxo-1,9-diazaspiro[5.5]undecan-9-yl)picolinonitrile], for which the inhibitory constant (Ki) at human orexin 2 receptors [1] came to 0.104 µM; on human orexin 1 receptors [4], 2.58 µM. Moreover, the values for the Kd at human orexin 1 receptors [2] and on human orexin 2 receptors [3] were above 10 µM and 1.15 µM, respectively.
In the case of `Cc1cc(C)nc(N2CCC3(CCCN(Cc4ccccc4-c4ncco4)C3=O)CC2)n1` [Example 93, 9-(4,6-dimethylpyrimidin-2-yl)-2-(2-(oxazol-2-yl)benzyl)-2,9-diazaspiro[5.5]undecan-1-one], the results for the Ki on human orexin 2 receptors [1] and on human orexin 1 receptors [4] were 0.016 µM and 1.4 µM, respectively. For the same molecule, the Kd was 4.13 µM on human orexin 1 receptors [2] and 0.091 µM at human orexin 2 receptors [3].
Take `Cc1ccnc(N2CCC3(CCCC(=O)N3Cc3cccc4[nH]c(C)cc34)CC2)n1` [Example 96, 1-((2-methyl-1H-indol-4-yl)methyl)-9-(4-methylpyrimidin-2-yl)-1,9-diazaspiro[5.5]undecan-2-one]: the Ki turned out to be 0.018 µM on human orexin 2 receptors [1] and 0.866 µM at human orexin 1 receptors [4]. The values for the Kd at human orexin 1 receptors [2] and at human orexin 2 receptors [3] were 1.94 µM and 0.09 µM, respectively.
For `Cc1nc(N2CCC3(CCCN(Cc4c[nH]c5ccccc45)C3=O)CC2)ncc1F` [Example 102, 2-((1H-indol-3-yl)methyl)-9-(5-fluoro-4-methylpyrimidin-2-yl)-2,9-diazaspiro[5.5]undecan-1-one] the same measures were 0.04 µM, 1.07 µM, 1.16 µM and 0.059 µM.
For `Cc1cc(C)nc(N2CCC3(CCCN(Cc4c[nH]c5c(C)cccc45)C3=O)CC2)n1` [Example 103, 9-(4,6-dimethylpyrimidin-2-yl)-2-((7-methyl-1H-indol-3-yl)methyl)-2,9-diazaspiro[5.5]undecan-1-one] the same measures were 0.026 µM, 1.9 µM, 1.77 µM and 0.035 µM.
For `Cc1ccc2[nH]cc(CN3CCCC4(CCN(c5nc(C)cc(C)n5)CC4)C3=O)c2c1` [Example 104, 9-(4,6-dimethylpyrimidin-2-yl)-2-((5-methyl-1H-indol-3-yl)methyl)-2,9-diazaspiro[5.5]undecan-1-one], in that order: 0.0048 µM, 0.292 µM, 1.02 µM and 0.025 µM.
As to `Cc1cc(C)nc(N2CCC3(CCCN(Cc4c[nH]c5ccc(C#N)cc45)C3=O)CC2)n1` [Example 105, 3-((9-(4,6-dimethylpyrimidin-2-yl)-1-oxo-2,9-diazaspiro[5.5]undecan-2-yl)methyl)-1H-indole-5-carbonitrile], the values for the Ki on human orexin 2 receptors [1] and at human orexin 1 receptors [4] were 0.0033 µM and 0.295 µM, respectively. Besides, the figures for the Kd at human orexin 1 receptors [2] and on human orexin 2 receptors [3] were 0.655 µM and 0.025 µM, respectively.
For `Cc1cc(C)nc(N2CCC3(CCCN(Cc4n[nH]cc4-c4ccccc4)C3=O)CC2)n1` [Example 106, 9-(4,6-dimethylpyrimidin-2-yl)-2-((4-phenyl-1H-pyrazol-3-yl)methyl)-2,9-diazaspiro[5.5]undecan-1-one], in that order: 0.0033 µM, 0.763 µM, 1.83 µM and 0.049 µM.

What is called Ki is a measure of affinity in units of concentration, obtained from inhibition or displacement. By Kd is commonly meant the free concentration of one partner at which half of the binding sites on the other are occupied at equilibrium, for simple one-to-one binding. A word on the inhibition: it is how much of the control response was suppressed.
